Assay results taken from patent US20030134859A1 (SANKYO COMPANY, LIMITED, priority 2000, published 2003).
Structures can show the parent of a compound that is named as a salt.

Tests used:
human PPAR γ 2 [1] = molecular target: T1, human PPAR γ 2 (Homo sapiens, UniProt P37231); test: PPAR γ transcriptional activity, luciferase reporter, test compound alone; assay type: cell-based; conditions: concentration indicating Emax/2, MG63 cells transfected with pSG5-hPPARg and pGV-P2-PPRE, 24 hr
T1 construct: expressed in transfected cells; host or cells: human osteosarcoma MG63, transiently co-transfected with pSG5-hPPARg and the reporter pGV-P2-PPRE
T1 sequence (P37231 1-505): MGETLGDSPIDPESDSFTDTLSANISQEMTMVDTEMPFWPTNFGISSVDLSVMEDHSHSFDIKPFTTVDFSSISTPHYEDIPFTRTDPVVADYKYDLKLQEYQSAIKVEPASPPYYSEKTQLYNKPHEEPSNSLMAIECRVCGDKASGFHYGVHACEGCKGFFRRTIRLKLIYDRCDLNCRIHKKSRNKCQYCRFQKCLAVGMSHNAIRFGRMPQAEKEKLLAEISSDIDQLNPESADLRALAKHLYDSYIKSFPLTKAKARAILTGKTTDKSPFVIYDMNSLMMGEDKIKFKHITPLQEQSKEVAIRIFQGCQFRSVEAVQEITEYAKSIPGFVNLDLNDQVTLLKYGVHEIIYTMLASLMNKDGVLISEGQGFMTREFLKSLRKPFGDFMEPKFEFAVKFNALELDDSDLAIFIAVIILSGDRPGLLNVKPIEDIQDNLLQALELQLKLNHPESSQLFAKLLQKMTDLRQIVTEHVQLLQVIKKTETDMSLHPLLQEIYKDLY
Description: The primers of the polymerase chain reaction (hereinafter “PCR”) were designed according to the gene sequence of human PPAR γ 2 (GenBANK accession No. D83233). In order to insert the genes into the BamHI site of the plasmid pSG5 ([…] CLONING SYSTEMS), Bgl II sites were added upstream and downstream of the genes encoding human PPAR γ 2 protein. For this, 2 kinds of polynucleotides shown in the sequence numbers 1 and 2 in the sequence table described below (hereinafter “S1” and “AS1”, respectively) were used as PCR primers.
In order to determine transcriptional activity via PPAR γ, 2 kinds of polynucleotides represented in sequence numbers 3 and 4 in the sequence table described below (hereinafter “S2” and “AS2”, respectively) were used for construction of the reporter plasmid having PPAR responsive element. The DNA fragment inserted was designed based on the gene sequence in the promoter region of rat acylCo-A oxidase (J. D. Tugwood, EMBO J., 11 (2), pp433-439 (1992)). For insertion of the DNA fragment into the reporter plasmid pGV-P2 (TOYO INK MFG CO., LTD), a NheI site and an XhoI site were added to the S2 and AS2, respectively.
Using cDNA library (Clontech) derived from human adipose tissue as a template, DNA oligomers S1 and AS1 that were synthesized in the procedure 1 as primers and Ex-Taq™ (TAKARA BIO INC.) as a thermostable DNA polymerase-PCR was carried out. As a result of the PCR, the c.a. 1500 bps DNA fragments were amplified. Each cycle consisted of incubation at 94° C. for 1 min for denaturation of the template, then at 55° C. for 30 sec for annealing of DNA oligomers the PCR primer, and then at 72° C. for 30 sec for extension of the chain. The obtained DNA fragments with approximately 1500 base pairs were digested at the Bgl II sites and were inserted into BamHI sites of pSG5. Thus a human PPAR γ expression plasmid named pSG5-hPPAR g was obtained. The nucleotide sequence of the inserted DNA fragment was confirmed to be identical sequence to the human PPAR γ 2 reported by the dideoxy method.
Vector pGV-P2 digestion products was prepared by digestion using the restriction enzymes, NheI and XhoI, and purified by 1.0% agarose-gel electrophoresis. The DNA oligomers, S2 and AS2 obtained in Procedure 2, were mixed together and were incubated in a hot bath at 94° C. for 1 min. After the annealing was partially broken, they were further incubated at 25° C. for 1 hr. Thus double-stranded DNA with annealing of S2 and AS2 was formed. Then, the terminus of the double-stranded DNA with annealing of S2 and AS2 was phosphorylated with DNA polynucleotide kinase (TOYOBO CO., LTD). After that, it was ligated to the pGV-P2 digestion products which were prepared previously using the NheI site and XhoI site. Thus the reporter plasmid pGV-P2-PPRE was obtained.
Using the plasmid obtained by the procedures 3 and 4, transformation of Escherichia coli HB-101 strain was carried out by conventional methods. HB-101 strain having the plasmid was incubated in L-broth medium (containing 10 g of trypton (Difco), 5 g of yeast extract (Difco), 5 g of sodium chloride in 1 L of aqueous solution) containing 100 μg/ml of ampicillin at 37° C. for 17 hrs. Then, each plasmid was purified by the alkaline-SDS method and employed for the gene transfection to mammalian cells. After mixing the pSG5-hPPARg, PGV-P2-PPRE and LipofectAMINE reagent (GIBCO BRL), the human osteosarcoma MG63 was transiently transfected. Then the cells were recovered. The recovered cells were plated on a 96-well plate so as to be 30,000 cells/well and cultured in a CO2 incubator (NAPCO) at 37° C. for 24 hr under the condition of 5% CO2, 95%-RH.
Various concentrations of the test compound alone were added to culturing medium of the cells prepared in the Procedure 5. After 24 hr of culturing, LT2.0 (TOYO INK MFG CO., LTD), a luciferase substrate, was added to the medium free culture plate. […]

human PPAR γ 2 [2] = molecular target: T1, human PPAR γ 2; test: Inhibitory activity against PPAR γ transcription in the presence of agonist compound A, luciferase reporter; assay type: cell-based; conditions: in the presence of 10 nM compound A (agonist); MG63 cells transfected with pSG5-hPPARg and pGV-P2-PPRE; 24 hr

Row | SMILES | EC50 (human PPAR γ 2 [1]) | IC50 (human PPAR γ 2 [2])
1 | Cc1ccc(NC(=O)c2cc([N+](=O)[O-])ccc2Cl)cc1 [Example 1, N-(4-Methylphenyl)-(2-chloro-5-nitrophenyl)carboxamide] | 220 nM | 33 nM
2 | O=C(Nc1ccc(-c2ccccc2)cc1)c1cc([N+](=O)[O-])ccc1Cl [Example 2, N-(4-Phenylphenyl)-(2-chloro-5-nitrophenyl)carboxamide] | 840 nM | 1.9 nM
3 | O=C(Nc1cccc(-c2ccccc2)c1)c1cc([N+](=O)[O-])ccc1Cl [Example 5, N-(3-Phenylphenyl)-(2-chloro-5-nitrophenyl)carboxamide] | 400 nM | 82 nM
4 | COc1ccc(NC(=O)c2cc([N+](=O)[O-])ccc2Cl)cc1-c1ccccc1 [Example 6, N-(4-Methoxy-3-phenyl)phenyl-(2-chloro-5-nitrophenyl)carboxamide] | 34 nM | 160 nM
5 | O=C(Nc1ccccc1-c1ccccc1)c1cc([N+](=O)[O-])ccc1Cl [Example 7, N-(2-Phenylphenyl)-(2-chloro-5-nitrophenyl)carboxamide] | 270 nM | –
6 | O=C(Nc1ccc(-c2ccccn2)cc1)c1cc([N+](=O)[O-])ccc1Cl [Example 8, N-[4-(2-Pyridyl)phenyl]-(2-chloro-5-nitrophenyl)carboxamide] | 260 nM | 5.9 nM
7 | CCCCCc1ccc(NC(=O)c2cc([N+](=O)[O-])ccc2Cl)cc1 [Example 16, N-(4-Pentylphenyl)-(2-chloro-5-nitrophenyl)carboxamide] | 34 nM | 7.5 nM
8 | O=C(Nc1nc(-c2cccnc2)cs1)c1cc([N+](=O)[O-])ccc1Cl [Example 37, N-[4-(3-Pyridyl)thiazol-2-yl)-(2-chloro-5-nitrophenyl)carboxamide] | 510 nM | 15 nM
9 | O=C(Nc1nc(-c2ccccn2)cs1)c1cc([N+](=O)[O-])ccc1Cl [Example 38, N-[4-(2-Pyridyl)thiazol-2-yl)-(2-chloro-5-nitrophenyl)carboxamide] | 250 nM | 45 nM
10 | Cc1ccccc1-c1csc(NC(=O)c2cc([N+](=O)[O-])ccc2Cl)n1 [Example 39, N-[4-(2-Methylphenyl)thiazol-2-yl]-(2-chloro-5-nitrophenyl)carboxamide] | 39 nM | 40 nM
11 | Cc1ccc(-c2nc(NC(=O)c3cc([N+](=O)[O-])ccc3Cl)sc2C)cc1Cl [Example 46, N-[4-(3-Chloro-4-methylphenyl)-5-methylthiazol-2-yl]-(2-chloro-5-nitrophenyl)carboxamide] | 810 nM | 54 nM
12 | Cc1nc(NC(=O)c2cc([N+](=O)[O-])ccc2Cl)sc1C [Example 47] | 420 nM | 38 nM
13 | O=C(Nc1cccc2cccnc12)c1cc([N+](=O)[O-])ccc1Cl [Example 57, N-(8-Quinolinyl)-(2-chloro-5-nitrophenyl)carboxamide] | 260 nM | –
14 | COC(=O)c1sccc1NC(=O)c1cc([N+](=O)[O-])ccc1Cl [Example 66, N-(2-Methoxycarbonylthiophen-3-yl)-(2-chloro-5-nitrophenyl)carboxamide] | 120 nM | –
15 | O=C(Nc1c(Cl)ncnc1Cl)c1cc([N+](=O)[O-])ccc1Cl [Example 81, N-(4,6-Dichloropyrimidin-5-yl)-(2-chloro-5-nitrophenyl)carboxamide] | 760 nM | 23 nM
16 | Cn1c(NC(=O)c2cc([N+](=O)[O-])ccc2Cl)nc2ccccc21 [Example 82, N-(1-Methylbenzimidazol-2-yl)-(2-chloro-5-nitrophenyl)carboxamide] | 260 nM | 400 nM

Stronger by EC50 (human PPAR γ 2 [1]), values ahead:

Row | EC50 (human PPAR γ 2 [1]) | IC50 (human PPAR γ 2 [2]) | SMILES
17 | 15 nM | 120 nM | Cc1cnc(NC(=O)c2cc([N+](=O)[O-])ccc2Cl)s1 [Example 4, N-(5-Methylthiazol-2-yl)-(2-chloro-5-nitrophenyl)carboxamide]
18 | 2.1 nM | 6.3 nM | CCOC(=O)c1ccc(NC(=O)c2cc([N+](=O)[O-])ccc2Cl)cc1 [Example 26, N-(4-Ethoxycarbonylphenyl)-(2-chloro-5-nitrophenyl)carboxamide]
19 | 4.4 nM | 230 nM | CC(C)(C)c1cc(NC(=O)c2cc([N+](=O)[O-])ccc2Cl)cc(C(C)(C)C)c1O [Example 29, N-(3,5-Di-t-butyl-4-hydroxyphenyl)-(2-chloro-5-nitrophenyl)carboxamide]
20 | 1.9 nM | 12 nM | O=C(Nc1cccc(NS(=O)(=O)c2ccccc2)c1)c1cc([N+](=O)[O-])ccc1Cl [Example 30, N-(3-Benzensulfonylaminophenyl)-(2-chloro-5-nitrophenyl)carboxamide]
21 | 25 nM | 30 nM | O=C(Nc1nc(-c2ccccc2)cs1)c1cc([N+](=O)[O-])ccc1Cl [Example 35, N-(4-Phenylthiazol-2-yl)-(2-chloro-5-nitrophenyl)carboxamide]
22 | 11 nM | 77 nM | O=C(Nc1nc(-c2cccc3ccccc23)cs1)c1cc([N+](=O)[O-])ccc1Cl [Example 41, N-[4-(1-Naphthyl)thiazol-2-yl]-(2-chloro-5-nitrophenyl)carboxamide]
23 | 6.6 nM | 120 nM | Cc1cccc(NC(=O)c2cc([N+](=O)[O-])ccc2Cl)n1 [Example 51, N-(6-Methylpyridin-2-yl)-(2-chloro-5-nitrophenyl)carboxamide]
24 | 5.6 nM | 210 nM | Cc1ccc(NC(=O)c2cc([N+](=O)[O-])ccc2Cl)nc1 [Example 52, N-(5-Methylpyridin-2-yl)-(2-chloro-5-nitrophenyl)carboxamide]
25 | 4.7 nM | 340 nM | O=C(Nc1ccc2c3c(cccc13)CC2)c1cc([N+](=O)[O-])ccc1Cl [Example 54, N-(Acenaphthen-5-yl)-(2-chloro-5-nitrophenyl)carboxamide]
26 | 20 nM | 2.8 nM | Nc1ccc(NC(=O)c2cc([N+](=O)[O-])ccc2Cl)cc1 [Example 58, N-(4-Aminophenyl)-(2-chloro-5-nitrophenyl)carboxamide mono-hydrochloride]
27 | 28 nM | 91 nM | O=C(Nc1nncs1)c1cc([N+](=O)[O-])ccc1Cl [Example 85, N-(1,3,4-Thiadiazol-2-yl)-(2-chloro-5-nitrophenyl)carboxamide]
28 | 11 nM | 710 nM | O=C(Nc1cccc2nsnc12)c1cc([N+](=O)[O-])ccc1Cl [Example 86, N-(2,1,3-Benzothiazol-4-yl)-(2-chloro-5-nitrophenyl)carboxamide]
